Assay results as given in patent US20160317560A1, “PARTICLES CONTAINING PHOSPHOLIPIDS OR BIOACTIVE FATTY ACIDS AND USES THEREOF” (THE UNIVERSITY OF NORTH CAROLINA AT CHAPEL HILL, priority 2013, published 2016).
Entries after “also recorded” stand apart in the source; their conditions may differ.

Key:
2D2 T cells = test: Murine DC/T-cell co-culture (mouse dendritic cells and MOG-specific 2D2 T cells), T-cell activation and Treg induction; type: cell-based; conditions: for IFN-γ production by T cells: in the presence of MOG antigen, 50 μM PS (FIG. 11A)
Excerpt: FIG. 5 depicts a murine model of multiple sclerosis (2D2) for evaluating T-cell activation in murine DC/T-cell co-culture.
FIG. 11A-B depicts programming regulatory T cells with phosphatidylserine Nanoparticles. A) Flow plots of 2D2 T cells after co-stimulation with bone-marrow derived dendritic cells+/−the MOG peptide. […] (*=p<0.05).
Using a co-culture model with mouse dendritic cells and 2D2 T cells specific for the MOG-peptide, Th1-skewed IFN-γ producing T cells were turned into FOXP3+, IL-10 producing T regulatory cells (FIGS. 10 and 11). In the absence of antigen, roughly 20% of all T cells were programmed into anti-inflammatory IL-10 producing FOXP3+ regulatory T cells. This was about a 10-15 fold increase as compared to blank PLGA particles controls. This was about 4-5 fold increase over the soluble PS control at the same dose. This is an exceptionally high % of T regulatory cells in any in vitro or in vivo system.
In the presence of soluble MOG antigen, about 10% of T cells produced IFN-γ in the blank 80×320 nm PLGA control group. […] The presence of antigen led to a 10% IL-10+, FOXP3+ T regulatory population in the presence of blank PLGA particles or soluble PS. PS-PLGA particles induced 2 fold higher levels of this regulatory T cell population, about 20% of all T cells.

[1] = test system: primary progressive multiple sclerosis; test: Murine model of primary progressive multiple sclerosis; type: in vivo; conditions: 14 day study
Excerpt: FIG. 15 depicts a murine model of primary progressive multiple sclerosis. Reproduced from the Reeves Foundation. FIG. 16 provides data showing PS-loaded particles reduce MS symptoms. The study was 14 days to emphasize the suppression of the neuroinflammation ramp-up during the model.

[2] = test system: bone marrow derived mouse macrophages; test: Inflammasome activation in bone marrow derived mouse macrophages; type: cell-based; conditions: 1 μm and 80×320 nm particles; soluble form at the same dose; FIG. 19
Excerpt: FIG. 19. Anti-inflammatory Programming Particles.
Disclosed herein are data showing emergent properties when bioactive fatty acids and phospholipids are delivered via the particles described herein. […] Other phospholipids and bioactive fatty acids could have similar properties when particulated as described herein.

Compound: CCCCCCCC/C=C\CCCCCCCC(=O)O[C@H](COC(=O)CCCCCCCCCCCCCCCCC)COP(=O)(O)OC[C@H](N)C(=O)[O-].[Na+] [PS SOL, Phosphatidylserine]
- FOXP3+ T cells (2D2 T cells; FIG. 11A, 50 μM PS): not seen
- IFN-γ production by T cells (2D2 T cells): inhibit IFN-γ production
- IFN-γ production by T cells (2D2 T cells; listed as soluble PS): inhibited to baseline levels; also recorded: can inhibit IFN-γ as well as particulate PS
- IFN-γ production by T cells (2D2 T cells; listed as soluble phosphatidylserine (PS)): dampen IFN-γ production
- IL-10+, FOXP3+ T regulatory population, % of all T cells (2D2 T cells; presence of soluble MOG antigen): 10%
- Maximum Score ([1]; (+/−)): 0.8 (+/−0.2)
- Disease Incidence ([1]; (affected/total animals)): 83% (10/12)
- inflammasome activation / signaling [2]: exacerbated inflammation
